Experimental data published in patent US20200060994A1, “METHODS OF TREATING PSYCHIATRIC STRESS DISORDERS” (Yeda Research and Development Co. Ltd., priority 2017, published 2020).
Entries after “also recorded” stand apart in the source; their conditions may differ. Counter-ions that a name gives are not always drawn.

Columns and labels:
importin α5 KO mice [1] = experiment: Open field (OF) test, importin α5 KO mice; format: in vivo, mouse; conditions: FG-7142 5 mg/kg intraperitoneally, OF after 30 min
Description: (§1) All drugs were administered by intraperitoneal injection (I.P.). […] A. CNS Drug Rev.

wild type C57BL6 mice [2] = experiment: Elevated plus maze (EPM) test, wild type mice; format: in vivo, mouse
Description: as §1
(§2) The EPM contains two open arms and two enclosed ones connected by a central square. Exploration on the open arms is reduced in high anxiety states while it is increased in low anxiety states [Walf, A. A. & Frye, C. A. Nat. Protoc. 2, 322-8 (2007)]. Mice were placed on the central platform facing one of the “open” arms to initiate a 5-minutes test session and the time spent in each arm was measured. The test was performed under 7 lx and 65 dB white noise. The number of entries into, the time spent/distance on the open arms and the percentage of the open arm entries compared with total number of arm entries were recorded using the VideoMot2 software (TSE System, Germany) or the Ethovision XT11 software (Noldus Information Technology, The Netherlands).

importin α5 KO mice [3] = experiment: Elevated plus maze (EPM) test, importin α5 KO mice; format: in vivo, mouse; conditions: PF-543 10 mg/kg i.p.
Description: as §1, §2

wild type C57BL6 mice [4] = experiment: Open field (OF) test, wild type mice; conditions: for anxiolytic properties / behavior in the OF test: 1 hour following i.p. injection vs vehicle, Sitosterol 100 mg/kg, Alvespimycin 75 mg/kg, Fluspirilene 10 mg/kg; for number of rearings in the OF center: larger cohort n=10 mice per group, P<0.01
[5] = S1P receptor agonist 0.1 mg/kg i.p., C57BL6, vs vehicle
[6] = S1P receptor agonist 0.1 mg/kg i.p., C57Bl6
[7] = β-sitosterol 100 mg/kg, 1 hour following injection, vs vehicle
[8] = β-sitosterol 100 mg/kg IP, 1 and 6 hours following injection, vs vehicle

SMILES: CNC(=O)c1cc2c(cn1)[nH]c1ccccc12 [FG-7142]
- distance travelled in the center of the OF (importin α5 KO mice [1]): significantly decreases
- number of rearing events in the center (importin α5 KO mice [1]): significantly decreases
- anxiolytic phenotype of importin α5 KO mice in the OF test (importin α5 KO mice [1]; 5 mg/kg): reversed anxiolysis

SMILES: Cc1cc(CS(=O)(=O)c2ccccc2)cc(OCc2ccc(CN3CCC[C@@H]3CO)cc2)c1 [PF-543]
- anxiety-related behavior of WT mice in the EPM (wild type C57BL6 mice [2]; PF-543 10 mg/kg i.p., WT mice): did not influence
- distance travelled in the open arms (importin α5 KO mice [3]; importin α5 KO animals): significantly decreased
- time spent in the open arms (importin α5 KO mice [3]; importin α5 KO animals): significantly decreased
- anxiolytic phenotype of importin α5 KO mice in the EPM (importin α5 KO mice [3]; 10 mg/kg): attenuated; also recorded: reverse the anxiolytic response of importin α5 KOs towards WT values

SMILES: CO[C@H]1/C=C\C=C(/C)C(=O)NC2=CC(=O)C(NCCN(C)C)=C(C[C@@H](C)C[C@H](OC)[C@H](O)[C@@H](C)/C=C(\C)[C@@H]1OC(N)=O)C2=O [alvespimycin]
- anxiolytic properties / behavior in the OF test (wild type C57BL6 mice [4]): marked yet variable differences; also recorded: anxiolytic effect
- rearing activity in the center (wild type C57BL6 mice [4]; alvespimycin 75 mg/kg i.p., 1 hour, single dosage regime, FIG. 12A): reaching statistical significance
- motor performances in the OF test (wild type C57BL6 mice [4]; alvespimycin, independent cohort n=10, FIG. 12B): without adverse effects
- number of rearings in the OF center (wild type C57BL6 mice [4]; alvespimycin, FIG. 12B): 6.2±2.07
- number of rearings in the OF center (wild type C57BL6 mice [4]; alvespimycin, FIG. 12B, listed as Alvespimycin): increase
- time spent in the center area (wild type C57BL6 mice [4]; alvespimycin, n=10 per group, FIG. 12B, P=0.052): increased
- latency to access the center area (wild type C57BL6 mice [4]; alvespimycin, n=10 per group, FIG. 12B, P=0.08): increased
- number of visit in the center area (wild type C57BL6 mice [4]; alvespimycin, n=10 per group, FIG. 12B, P=0.09): increased

SMILES: CNCCC(Oc1ccc(C(F)(F)F)cc1)c1ccccc1 (stereo not drawn) [fluoxetine, Fluoxetine hydrochloride]
- anxiolytic effect in the OF test, dose-response (wild type C57BL6 mice [4]; fluoxetine 2, 5, 10 or 20 mg/kg vs vehicle, 10 minutes OF test): dose dependent anxiolytic effect
- anxiolytic effects in the OF test (wild type C57BL6 mice [4]; fluoxetine doses of 5 mg/kg and below): no apparent effect
- anxiolytic effects in the OF test (wild type C57BL6 mice [4]; fluoxetine doses of 10 mg/kg and above): significant anxiolytic effects

SMILES: O=C1NCN(c2ccccc2)C12CCN(CCCC(c1ccc(F)cc1)c1ccc(F)cc1)CC2 [fluspirilene]
- anxiolytic properties / behavior in the OF test (wild type C57BL6 mice [4]): anxiolytic effect

SMILES: CCc1cc(/C(C)=N/OCc2ccc(C3CCCCC3)c(C(F)(F)F)c2)ccc1CN1CC(C(=O)O)C1 [siponimod]
- time spent in the open arms of the EPM (wild type C57BL6 mice [2]; [5]): significant increase
- anxiety levels in the EPM assay (wild type C57BL6 mice [2]; [6]): markedly reduced
- distance in the open arms of the EPM (wild type C57BL6 mice [2]; siponimod 0.1 mg/kg i.p. every 3 days during 4 weeks, vs vehicle): significant increase
- distance travelled in the center of the OF (wild type C57BL6 mice [4]; [5]): significant increase
- time spent in the center of the OF (wild type C57BL6 mice [4]; [5]): significant increase
- anxiety levels in the OF assay (wild type C57BL6 mice [4]; [6]): markedly reduced
- center/border ratio (for the exploration time) in the OF (wild type C57BL6 mice [4]; siponimod 0.1 mg/kg i.p. every 3 days during 4 weeks, vs saline): higher

SMILES: CC[C@H](CC[C@@H](C)[C@H]1CC[C@H]2[C@@H]3CC=C4C[C@@H](O)CC[C@]4(C)[C@H]3CC[C@]12C)C(C)C [β-sitosterol]
- distance in the open arms of the EPM (wild type C57BL6 mice [2]; [7]): significant increase
- time spent in the open arms of the EPM (wild type C57BL6 mice [2]; [7]): significant increase
- anxiolytic properties / behavior in the OF test (wild type C57BL6 mice [4]): anxiolytic effect
- distance travelled in the OF center (wild type C57BL6 mice [4]; [8]): increasing
- number of visits in the OF center (wild type C57BL6 mice [4]; [8]): increasing
- time course of anxiolytic effects in the OF test (wild type C57BL6 mice [4]; β-sitosterol by injection): apparent 1 hour post-injection and persisted until 6 hours following injection
- anxiolytic effect in the OF test, dose response (wild type C57BL6 mice [4]; β-sitosterol intraperitoneally at the indicated doses, 1 hour following injection): clear dose-dependent anxiolytic effects; also recorded: reaching significance for the highest dose tested
